# Data as given in US20260130901A1, “CGRP RECEPTOR ANTAGONIST FOR THE TREATMENT OF MIGRAINE” (ALLERGAN PHARMACEUTICALS INTERNATIONAL LIMITED, priority 2022, published 2026).
# Tested on: participants with migraine (qualifying prodrome events)
# Test: Phase 3 crossover study: absence of prodrome symptoms over time
# Format: in vivo, human
# Conditions: 100 mg in prodrome; for Absence of dizziness, Nonresponder (%) / Absence of dizziness, Odds ratio vs. placebo / Absence of dizziness, Responder (%) / Absence of fatigue, Nonresponder (%) / Absence of fatigue, Odds ratio vs. placebo / Absence of fatigue, Responder (%) / Absence of neck pain, Nonresponder (%) / Absence of neck pain, Odds ratio vs. placebo / Absence of neck pain, Responder (%) / Absence of sensitivity to light, Nonresponder (%) / Absence of sensitivity to light, Odds ratio vs. placebo / Absence of sensitivity to light, Responder (%) / Absence of sensitivity to sound, Nonresponder (%) / Absence of sensitivity to sound, Odds ratio vs. placebo / Absence of sensitivity to sound, Responder (%): participants with symptom at predose
# Description: A phase 3, multicenter, randomized, double-blind, placebo-controlled, crossover study was carried out to evaluate the efficacy, safety, and tolerability of oral ubrogepant in the acute treatment of migraine when administered during the prodrome. The study evaluated whether treatment during the initial phase of a migraine attack (i.e., the prodrome or premonitory phase) prior to the onset of headache, can attenuate the severity of the headache phase and reduce disability.
# Eligible participants were randomized (1:1) to treatment sequences A or B in this crossover study. Participants randomized to Treatment Sequence A received placebo to treat their first qualifying prodrome event and ubrogepant 100 mg to treat their second qualifying prodrome event. For those randomized to Treatment Sequence B, they received the reverse: ubrogepant 100 mg to treat their first qualifying prodrome event and placebo to treat their second qualifying prodrome event.
# N1 is the number of participants with the prodrome symptom at predose. N2 is the number of participants with non-missing prodrome symptom intensity assessment by timepoint after dose. The proportion of events with absence of sensitivity to light after ubrogepant 100 mg was numerically greater than after placebo, starting at 2 hours post-dose and extending through 48 hours (nominal P≤0.0109 for hours 2-8).
# N1 is the number of participants with the prodrome symptom at predose. N2 is the number of participants with non-missing prodrome symptom intensity assessment by timepoint after dose. The difference in response rates was nominally significant for the ubrogepant 100 mg dose group compared with placebo as early as 3 hours post-dose administered during the prodrome.
# N1 is the number of participants with the prodrome symptom at predose. N2 is the number of participants with non-missing prodrome symptom intensity assessment by timepoint after dose.
structure (smiles),measurement,setting,value
"C[C@@H]1[C@H](c2ccccc2)C[C@H](NC(=O)c2cnc3c(c2)C[C@@]2(C3)C(=O)Nc3ncccc32)C(=O)N1CC(F)(F)F [Ubrogepant, (3′S)—N-((3S,5S,6R)-6-methyl-2-oxo-5-phenyl-1-(2,2,2-trifluoroethyl)piperidin-3-yl)-2′-oxo-1′,2′,5,7-tetrahydrospiro[cyclopenta[b]pyridine-6,3′-pyrrolo[2,3-b]pyridine]-3-carboxamide]","Response rates vs placebo, absence of dizziness",,Numerically higher response rates
same,"Response rates vs placebo, absence of sensitivity to sound",,Numerically higher response rates
same,"Absence of dizziness, Nonresponder (%)",1 Hour post dose,(90.0) %
same,"Absence of dizziness, Odds ratio vs. placebo",1 Hour post dose,0.96
same,"Absence of dizziness, Responder (%)",1 Hour post dose,(10.0) %
same,"Absence of fatigue, Nonresponder (%)",1 Hour post dose,(95.1) %
same,"Absence of fatigue, Odds ratio vs. placebo",1 Hour post dose,1.23
same,"Absence of fatigue, Responder (%)",1 Hour post dose,(4.9) %
same,"Absence of neck pain, Nonresponder (%)",1 Hour post dose,(95.8) %
same,"Absence of neck pain, Odds ratio vs. placebo",1 Hour post dose,1.43
same,"Absence of neck pain, Responder (%)",1 Hour post dose,(4.2) %
same,"Absence of sensitivity to light, Nonresponder (%)",1 Hour post dose,(95.2) %
same,"Absence of sensitivity to light, Odds ratio vs. placebo",1 Hour post dose,1.08
same,"Absence of sensitivity to light, Responder (%)",1 Hour post dose,(4.8) %
same,"Absence of sensitivity to sound, Nonresponder (%)",1 Hour post dose,(92.0) %
same,"Absence of sensitivity to sound, Odds ratio vs. placebo",1 Hour post dose,1.23
same,"Absence of sensitivity to sound, Responder (%)",1 Hour post dose,(8.0) %
same,"Absence of dizziness, Nonresponder (%)",2 Hours post dose,(70.7) %
same,"Absence of dizziness, Odds ratio vs. placebo",2 Hours post dose,1.17
same,"Absence of dizziness, Responder (%)",2 Hours post dose,(29.3) %
same,"Absence of fatigue, Nonresponder (%)",2 Hours post dose,(81.6) %
same,"Absence of fatigue, Odds ratio vs. placebo",2 Hours post dose,1.43
same,"Absence of fatigue, Responder (%)",2 Hours post dose,(18.4) %
same,"Absence of neck pain, Nonresponder (%)",2 Hours post dose,(84.6) %
same,"Absence of neck pain, Odds ratio vs. placebo",2 Hours post dose,1.39
same,"Absence of neck pain, Responder (%)",2 Hours post dose,(15.4) %
same,"Absence of sensitivity to light, Nonresponder (%)",2 Hours post dose,(80.5) %
same,"Absence of sensitivity to light, Odds ratio vs. placebo",2 Hours post dose,1.72
same,"Absence of sensitivity to light, Responder (%)",2 Hours post dose,(19.5) %
same,"Absence of sensitivity to sound, Nonresponder (%)",2 Hours post dose,(74.7) %
same,"Absence of sensitivity to sound, Odds ratio vs. placebo",2 Hours post dose,1.59
same,"Absence of sensitivity to sound, Responder (%)",2 Hours post dose,(25.3) %
same,"Absence of dizziness, Nonresponder (%)",3 Hours post dose,(60.7) %
same,"Absence of dizziness, Odds ratio vs. placebo",3 Hours post dose,1.60
same,"Absence of dizziness, Responder (%)",3 Hours post dose,(39.3) %
same,"Absence of fatigue, Nonresponder (%)",3 Hours post dose,(72.7) %
same,"Absence of fatigue, Odds ratio vs. placebo",3 Hours post dose,1.85
same,"Absence of fatigue, Responder (%)",3 Hours post dose,(27.3) %
same,"Absence of neck pain, Nonresponder (%)",3 Hours post dose,(71.1) %
same,"Absence of neck pain, Odds ratio vs. placebo",3 Hours post dose,2.04
same,"Absence of neck pain, Responder (%)",3 Hours post dose,(28.9) %
same,"Absence of sensitivity to light, Nonresponder (%)",3 Hours post dose,(67.6) %
same,"Absence of sensitivity to light, Odds ratio vs. placebo",3 Hours post dose,1.58
same,"Absence of sensitivity to light, Responder (%)",3 Hours post dose,(32.4) %
same,"Absence of sensitivity to sound, Nonresponder (%)",3 Hours post dose,(64.4) %
same,"Absence of sensitivity to sound, Odds ratio vs. placebo",3 Hours post dose,1.45
same,"Absence of sensitivity to sound, Responder (%)",3 Hours post dose,(35.6) %
same,"Absence of dizziness, Nonresponder (%)",4 Hours post dose,(50.0%
same,"Absence of dizziness, Odds ratio vs. placebo",4 Hours post dose,1.37
same,"Absence of dizziness, Responder (%)",4 Hours post dose,(50.0) %
same,"Absence of fatigue, Nonresponder (%)",4 Hours post dose,(65.2) %
same,"Absence of fatigue, Odds ratio vs. placebo",4 Hours post dose,1.93
same,"Absence of fatigue, Responder (%)",4 Hours post dose,(34.8) %
same,"Absence of neck pain, Nonresponder (%)",4 Hours post dose,(61.3) %
same,"Absence of neck pain, Odds ratio vs. placebo",4 Hours post dose,2.27
same,"Absence of neck pain, Responder (%)",4 Hours post dose,(38.7) %
same,"Absence of sensitivity to light, Nonresponder (%)",4 Hours post dose,(55.2) %
same,"Absence of sensitivity to light, Odds ratio vs. placebo",4 Hours post dose,1.46
same,"Absence of sensitivity to light, Responder (%)",4 Hours post dose,(44.8) %
same,"Absence of sensitivity to sound, Nonresponder (%)",4 Hours post dose,(49.3) %
same,"Absence of sensitivity to sound, Odds ratio vs. placebo",4 Hours post dose,1.97
same,"Absence of sensitivity to sound, Responder (%)",4 Hours post dose,(50.7) %
same,"Absence of dizziness, Nonresponder (%)",6 Hours post dose,(37.8) %
same,"Absence of dizziness, Odds ratio vs. placebo",6 Hours post dose,1.45
same,"Absence of dizziness, Responder (%)",6 Hours post dose,(62.2) %
same,"Absence of fatigue, Nonresponder (%)",6 Hours post dose,(56.3) %
same,"Absence of fatigue, Odds ratio vs. placebo",6 Hours post dose,1.46
same,"Absence of fatigue, Responder (%)",6 Hours post dose,(43.7) %
same,"Absence of neck pain, Nonresponder (%)",6 Hours post dose,(52.0) %
same,"Absence of neck pain, Odds ratio vs. placebo",6 Hours post dose,1.68
same,"Absence of neck pain, Responder (%)",6 Hours post dose,(48.0) %
same,"Absence of sensitivity to light, Nonresponder (%)",6 Hours post dose,(42.1) %
same,"Absence of sensitivity to light, Odds ratio vs. placebo",6 Hours post dose,1.75
same,"Absence of sensitivity to light, Responder (%)",6 Hours post dose,(57.9) %
same,"Absence of sensitivity to sound, Nonresponder (%)",6 Hours post dose,(43.3) %
same,"Absence of sensitivity to sound, Odds ratio vs. placebo",6 Hours post dose,1.44
same,"Absence of sensitivity to sound, Responder (%)",6 Hours post dose,(56.7) %
same,"Absence of dizziness, Nonresponder (%)",8 Hours post dose,(27.9) %
same,"Absence of dizziness, Odds ratio vs. placebo",8 Hours post dose,1.33
same,"Absence of dizziness, Responder (%)",8 Hours post dose,(72.1) %
same,"Absence of fatigue, Nonresponder (%)",8 Hours post dose,(46.1) %
same,"Absence of fatigue, Odds ratio vs. placebo",8 Hours post dose,1.87
same,"Absence of fatigue, Responder (%)",8 Hours post dose,(53.9) %
same,"Absence of neck pain, Nonresponder (%)",8 Hours post dose,(49.7) %
same,"Absence of neck pain, Odds ratio vs. placebo",8 Hours post dose,1.40
same,"Absence of neck pain, Responder (%)",8 Hours post dose,(50.3) %
same,"Absence of sensitivity to light, Nonresponder (%)",8 Hours post dose,(28.9) %
same,"Absence of sensitivity to light, Odds ratio vs. placebo",8 Hours post dose,2.40
same,"Absence of sensitivity to light, Responder (%)",8 Hours post dose,(71.1) %
same,"Absence of sensitivity to sound, Nonresponder (%)",8 Hours post dose,(33.8) %
same,"Absence of sensitivity to sound, Odds ratio vs. placebo",8 Hours post dose,1.75
same,"Absence of sensitivity to sound, Responder (%)",8 Hours post dose,(66.2) %
same,"Absence of dizziness, Nonresponder (%)",24 Hours post dose,(11.5) %
same,"Absence of dizziness, Odds ratio vs. placebo",24 Hours post dose,1.82
same,"Absence of dizziness, Responder (%)",24 Hours post dose,(88.5) %
same,"Absence of fatigue, Nonresponder (%)",24 Hours post dose,(31.4) %
same,"Absence of fatigue, Odds ratio vs. placebo",24 Hours post dose,1.19
same,"Absence of fatigue, Responder (%)",24 Hours post dose,(68.6) %
same,"Absence of neck pain, Nonresponder (%)",24 Hours post dose,(28.6) %
same,"Absence of neck pain, Odds ratio vs. placebo",24 Hours post dose,1.42
same,"Absence of neck pain, Responder (%)",24 Hours post dose,(71.4) %
same,"Absence of sensitivity to light, Nonresponder (%)",24 Hours post dose,(18.1) %
same,"Absence of sensitivity to light, Odds ratio vs. placebo",24 Hours post dose,1.37
same,"Absence of sensitivity to light, Responder (%)",24 Hours post dose,(81.9) %
same,"Absence of sensitivity to sound, Nonresponder (%)",24 Hours post dose,(16.9) %
same,"Absence of sensitivity to sound, Odds ratio vs. placebo",24 Hours post dose,1.38
same,"Absence of sensitivity to sound, Responder (%)",24 Hours post dose,(83.1) %
same,"Absence of dizziness, Nonresponder (%)",48 Hours post dose,(10.5) %
same,"Absence of dizziness, Odds ratio vs. placebo",48 Hours post dose,1.66
same,"Absence of dizziness, Responder (%)",48 Hours post dose,(89.5) %
same,"Absence of fatigue, Nonresponder (%)",48 Hours post dose,(22.9) %
same,"Absence of fatigue, Odds ratio vs. placebo",48 Hours post dose,1.22
same,"Absence of fatigue, Responder (%)",48 Hours post dose,(77.1) %
same,"Absence of neck pain, Nonresponder (%)",48 Hours post dose,(22.2) %
same,"Absence of neck pain, Odds ratio vs. placebo",48 Hours post dose,1.01
same,"Absence of neck pain, Responder (%)",48 Hours post dose,(77.8) %
same,"Absence of sensitivity to light, Nonresponder (%)",48 Hours post dose,(11.8) %
same,"Absence of sensitivity to light, Odds ratio vs. placebo",48 Hours post dose,1.52
same,"Absence of sensitivity to light, Responder (%)",48 Hours post dose,(88.2) %
same,"Absence of sensitivity to sound, Nonresponder (%)",48 Hours post dose,(11.7) %
same,"Absence of sensitivity to sound, Odds ratio vs. placebo",48 Hours post dose,0.93
same,"Absence of sensitivity to sound, Responder (%)",48 Hours post dose,(88.3) %
same,Effect on the most commonly reported prodrome symptoms compared with placebo,mITT,ameliorated the most commonly reported prodrome symptoms
same,"Earliest time at which difference in response rates vs placebo was nominally significant, absence of fatigue",post-dose,3 h
same,"Earliest time at which difference in response rates vs placebo was nominally significant, absence of neck pain",post-dose,3 h
